Laboratory results published in patent US20080058281A1, “Skin Lightening Compositions Comprising Vitamines and Flavonoids” (priority 2004, published 2008).

System: Melanoderm (MatTek MEL-300-B) tissue, epidermal keratinocytes (NHEK) and melanocytes (NHM)
Assay: Melanoderm system: quantification of light (alkali-soluble) and dark (alkali-insoluble) melanin
Assay type: cell-based, human
Conditions: for Total Melanin: Melanoderm tissue, agents in medium at Table 1 concentrations (Pycnogenol 10 μg/ml, Vit C 30 μg/ml, Vit E 1 μM, Vit B12 1 ng/ml, Vit A 15 ng/ml, cysteine 10 μg/ml, niacinamide 10 μg/ml), control 6.93; for Ratio of light melanin (μg/g)/dark melanin (μg/g) / Dark Melanin / Light Melanin / Dark Melanin, change relative to control / Light Melanin, change relative to control: Table 1 concentrations; for Ratio of light melanin (μg/g)/dark melanin (μg/g): control 0.14; for Dark Melanin: alkali-insoluble melanin, control 6.08; for Dark Melanin / Light Melanin: OD 340 nm; for Light Melanin: alkali-soluble melanin, control 0.85; for Dark Melanin, change relative to control: value in brackets under Dark Melanin; for Light Melanin, change relative to control: value in brackets under Light Melanin
Description: In these examples, evaluation of the ability of various agents, individually and in combination, to influence levels of dark and light melanin was tested using the commercially available Melanoderm™ system.
The MelanoDerm™ MatTeks system consists of normal, human-derived epidermal keratinocytes (NHEK) and melanocytes (NHM) which have been cultured to form a multilayered, highly differentiated model of the human epidermis. The NHM within co-cultures undergo spontaneous melanogenesis leading to tissues of varying levels of pigmentation. The tissues are produced using serum free medium without artificial stimulators of melanogenesis such as TPA and IBMX. The cultures are grown on cell culture inserts at the air-liquid interface, allowing for simulated topical application of agents to be tested. Introduction of agents into the medium simulates systemic application.
On delivery, the melanoderms (MatTek MEL-300-B) were placed onto metal ring supports in a 6 well plate containing 5 ml of pre-warmed maintenance media (of EPI-100-MM-PRF), using aseptic technique as per MatTek's protocol. Incubation was carried out overnight at 37° C. and 4% CO2 to allow the melanoderms to recover and equilibrate fully. Once placed under these conditions the MEL-300 tissue, undergo melanogenesis and differentiation.
Treatment was initiated on the following morning. Agents to be tested were dissolved in appropriate solvents and added to warmed media at final concentrations pre-assessed for melanocyte toxicity. Each time the media was changed, the spent media was aspirated from the melanoderms and reserved for testing for toxicity (Lactate Dehydrogenase (Promega)) and Interleukin-1 release (R&D systems) and replaced with a fresh dose of media plus test agents whether within the media of the melanoderm. Melanoderms were returned to the incubator.
On observation of differences in darkening, microscopic and macroscopic darkening were recorded photographically. Harvesting the tissue of the melanoderm involved cutting away the tissue from its plastic support and was followed by quantification of melanin present post-treatment versus untreated.
Melanoderm samples were cut from the plastic holders and the wet weight of tissue measured. 200 μl 1M NaOH/8M urea was added to the melanoderm sample the tissue homogenised in a microfuge tube. Samples were whirlimixed at RT for 30 minutes on and off to release the soluble melanin. Samples were centrifuged at 13,000 rpm for 10 minutes and supernatant containing soluble melanin was removed to a fresh tube.
Protein was extracted from the supernatant by addition of 200 μl chloroform and then by mixing vigorously for 1 minute. Phases were separated by centrifugation at 13,000 rpm for 10 minutes. 150 μl of supernatant was added to a microtitre plate (in duplicate) and the OD 340 nm ascertained.
1M NaOH was added to the remaining pellet which contains the insoluble melanin and the sample vortexed for one minute. The sample was then incubated in a water bath at 37° C. for 96 hrs with daily mixing to released the insoluble melanin. The sample was centrifuged for 10 minutes at 13,000 rpm with 200 μl of chloroform and 190 μl of the supernatant taken to a fresh tube. The supernatant was centrifuged again and 150 μl removed to a microtitre plate for analysis of absorption at 340 nm.
Absolute melanin is calculated as the actual melanin quantity calculated from a previously determined light melanin standard curve: x=(y−0.003)/4.76423 (where x=concentration of melanin and y=optical density at 340 nm).

Row | Compound | Total Melanin | Ratio of light melanin (μg/g)/dark melanin (μg/g) | Dark Melanin | Light Melanin | Dark Melanin, change relative to control | Light Melanin, change relative to control
1 | N[C@@H](CS)C(=O)O [Cysteine] | 5.96 µg/g | 0.13 | 5.27 µg/g | 0.69 µg/g | (−13.3%) | (−18.8%)
2 | NC(=O)c1cccnc1 [Niacinamide] | 8.10 µg/g | 0.13 | 7.16 µg/g | 0.94 µg/g | (+17.8%) | (+10.6%)
3 | Vitamin A | 7.81 µg/g | – | 6.71 µg/g | – | – | –
4 | Vitamin B12 | 7.93 µg/g | 0.19 | 6.66 µg/g | 1.27 µg/g | (+9.5%) | (+49.4%)
